Source: patent US12172989B2, “Histone acetyltransferase (HAT) inhibitor and use thereof” (SHANGHAI INSTITUTE OF MATERIA MEDICA, CHINESE ACADEMY OF …, priority 2018, dated 2024)

Columns and labels:
[1] = test system: Human castration resistant prostate cancer cell line LNCaP clone FGC; test: Cell growth inhibition experiment (CellTiter-Glo), LNCaP clone FGC; type: cell-based; details: Homo sapiens, 120 h, LNCaP clone FGC cells treated with the compound for 5 days
Description: (§1) Human castration resistant prostate cancer cell line 22Rv1 and LNCaP clone FGC (22Rv1 cell line was from ATCC, CRL-2505, LNCaP clone FGC cell line was purchased from Cell Bank of the Chinese Academy of Sciences) were cultured with RPMI 1640 medium (Gibco, available from Life Technologies Corporation, 22400-089) containing 10% fetal bovine serum (Gibco, available from Life Technologies, 10099-141) and 1% antibiotics (penicillin and streptomycin, available from Life Technologies Corporation, 10378016) in a CO2 cell incubator (37° C., 5% CO2). In the cell growth inhibition experiment, 22Rv1 and LNCaP clone FGC cells in exponential growth phase were seeded on a 96-well plate (purchased from Corning Company, 3599) with a volume of 150 μL/well and a cell density of 1,500 cells/well. After seeded, the plate was placed in a CO2 incubator to incubate overnight to allow the cells to adhere. On the next day, 50 μL of a compound at different concentrations diluted in 3-fold gradient or DMSO were added in a 96-well plate containing the cells. The final concentration of the compound ranges from 0.3 to 10000 nM, and the final concentration of DMSO is 0.05% as control group. The cells were treated by the compound for 5 days. Cell viability was measured using CellTiter-Glo reagent (purchased from Promega, G7572): the cell treated with the compound for 5 days was added with CellTiter-Glo reagent at 40 μL/well, incubated at room temperature for 10 min, transferred to a white 96-well plate (OptiPlate-96, purchased from PerkinElmer, 605299) by 70 μL. Subsequently, the luminescence signal was detected using a multifunctional microplate reader EnVision (purchased from PerkinElmer) at a wavelength of 400-700 nm. The data was analyzed by using GraphPad Prism 5.0 software to obtain IC50.

[2] = molecular target: T1, histone acetyltransferase p300 (Homo sapiens, UniProt Q09472); test: Histone acetyltransferase (p300) activity assay (radioisotope, [3H]-Ac-CoA); type: biochemical; details: p300 0.05 nM; histone peptide 600 nM, [3H]-Ac-CoA 250 nM; 60 min at room temperature; read-out: Inhibition rate IC50
T1 construct: purchased BPS Corporation 50071
T1 sequence (Q09472 1284-1673 limits assumed): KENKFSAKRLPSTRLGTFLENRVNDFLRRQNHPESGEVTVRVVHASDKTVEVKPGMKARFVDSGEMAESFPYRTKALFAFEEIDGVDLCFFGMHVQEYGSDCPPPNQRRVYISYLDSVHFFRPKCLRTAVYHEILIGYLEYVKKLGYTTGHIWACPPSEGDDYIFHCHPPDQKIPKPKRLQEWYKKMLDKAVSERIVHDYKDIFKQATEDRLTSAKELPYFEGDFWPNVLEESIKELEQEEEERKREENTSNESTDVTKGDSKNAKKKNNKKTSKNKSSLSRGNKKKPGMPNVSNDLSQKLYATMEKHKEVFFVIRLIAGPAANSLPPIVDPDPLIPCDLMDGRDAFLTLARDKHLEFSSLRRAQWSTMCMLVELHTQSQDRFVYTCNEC
Description: The reaction was finally terminated with Ac-CoA (Sigma, Cat. No. A2056) without isotope labeling. If the activity of the acetyltransferase p300 was inhibited, the isotope signal cannot be detected on the substrate polypeptide. Therefore, the inhibitory activity of the compound against the acetyltransferase p300 was evaluated.
In the enzyme reaction system, 200 nL of a diluted compound (100% DMSO) was first transferred to a test plate using Echo, where the final concentration of the compound in the enzyme reaction system ranges from 0.25 to 5000 nM. Then 10 μL/well of p300 protein (final concentration of 0.05 nM) was transferred therein, and incubated with the compound for 15 min at room temperature. Then 10 μL/well of a substrate mixture (final concentrations of histone peptide and [^3H]—Ac-CoA were 600 nM and 250 nM, respectively) was added to start the enzyme-catalyzed reaction, and incubated at room temperature for 60 min. Then 10 µL/well of a 250 μM cold Ac-CoA solution was added to stop the reaction. Finally 25 μL/well of the reaction solution was transferred to a 384-well Flashplate (Perkin Elmer, Cat. No. SMP410A001PK), and incubated at room temperature for 1 h. The resultant was washed with double distilled water+0.1% Tween-20 three times. The signal value was read by using Microbeta. The data was analyzed by using GraphPad Prism 5.0 software to obtain IC50.

[3] = test system: Human castration resistant prostate cancer cell line 22Rv1; test: Cell growth inhibition experiment (CellTiter-Glo), 22Rv1; type: cell-based; details: Homo sapiens, 120 h, 22Rv1 cells treated with the compound for 5 days
Description: as §1

[4] = test system: human mantle cell lymphoma (MCL) cell line MAVER-1; test: Cell growth inhibition experiment (CellTiter-Glo), MAVER-1; type: cell-based; details: Homo sapiens, Maver1, 120 h, MAVER-1 cells treated with the compound for 5 days
Description: The human mantle cell lymphoma (MCL) cell line MAVER-1 (from ATCC, CRL-3008) was cultured with RPMI 1640 medium (Gibco, available from Life Technologies Corporation, 22400-089) containing […] (Gibco, available from Life Technologies, 10099-141) and 1% antibiotics (penicillin and streptomycin, available from Life Technologies Corporation, 10378016) in a CO2 cell incubator (37° C., 5% CO2). In the cell growth inhibition experiment, MAVER-1 cells in exponential growth phase were seeded on a 96-well plate (purchased from Corning Company, 3599) in a volume of 100 μL/well and a cell density of 1*10E5 cells/well. After seeded, the plate was placed in a CO2 incubator to culture for 1 h. 100 μL of a compound at different concentrations diluted in 3-fold gradient or DMSO were added in a 96-well plate containing the cells. The final concentration of the compound ranges from 0.3 to 10000 nM, and the final concentration of DMSO is 0.05% as control group. The cells were treated with the compound for 5 days. Cell viability was measured using CellTiter-Glo reagent (purchased from Promega, G7572): the cells treated with the compound for 5 days was added with CellTiter-Glo reagent at 20 μL/well, incubated at room temperature for 10 min, transferred to a white 96-well plate (OptiPlate-96, purchased from PerkinElmer, 605299) by 80 μL. Subsequently, the luminescence signal was detected by using a multifunctional microplate reader EnVision (purchased from PerkinElmer) at a wavelength of 400-700 nm. The data was analyzed by using GraphPad Prism 5.0 software to obtain IC50.

IC50 [1] [nM]	IC50 [2] [nM]	IC50 [3] [nM]	IC50 [4] [nM]	Compound
78	12	–	–	CNC(=O)Nc1ccc2c(c1)CC[C@@]21OC(=O)N(CC(=O)N2Cc3ccccc3OC[C@H]2C)C1=O [SYY-B014-2]
48	9.1	40	–	CNC(=O)Nc1ccc2c(c1)CC[C@]21OC(=O)N(CC(=O)N2Cc3ccccc3CC[C@H]2C(F)(F)F)C1=O [SYY-B027-1]
78	4.8	127	–	CNC(=O)Nc1ccc2c(c1)CCC21NC(=O)N(CC(=O)N2Cc3ccc(F)cc3CC[C@H]2C2CC2)C1=O (stereo partly shown) [SYY-B033]
–	< 5	< 300	–	NC1(C(=O)Nc2ccc3c(c2)CC[C@]32OC(=O)N(CC(=O)N3Cc4ccc(F)cc4CC[C@H]3C3CC3)C2=O)CC1 [SYY-B035-1]
–	< 5	< 300	–	NC1(C(=O)Nc2ccc3c(c2)CC[C@@]32OC(=O)N(CC(=O)N3Cc4ccc(F)cc4CC[C@H]3C3CC3)C2=O)CC1 [SYY-B035-2]
13	1.5	64	–	CC(C)(N)C(=O)Nc1ccc2c(c1)CC[C@]21OC(=O)N(CC(=O)N2Cc3ccc(F)cc3CC[C@H]2C2CC2)C1=O [SYY-B037-1]
6	1	13	–	CC(C)(N)C(=O)Nc1ccc2c(c1)CC[C@@]21OC(=O)N(CC(=O)N2Cc3ccc(F)cc3CC[C@H]2C2CC2)C1=O [SYY-B038-1]
52	1.9	74	–	NC1(C(=O)Nc2ccc3c(c2)CC[C@]32OC(=O)N(CC(=O)N3Cc4ccc(F)cc4CC[C@H]3C3CC3)C2=O)CCC1 [SYY-B039-1]
15	1.2	36	–	NC1(C(=O)Nc2ccc3c(c2)CC[C@@]32OC(=O)N(CC(=O)N3Cc4ccc(F)cc4CC[C@H]3C3CC3)C2=O)CCC1 [SYY-B039-2]
< 100	4.3	< 100	–	Cn1cc(-c2ccc3c(c2)CC[C@]32OC(=O)N(CC(=O)N3Cc4ccc(F)cc4CC[C@H]3C3CC3)C2=O)cn1 [SYY-B041-1]
–	< 5	< 50	–	Cn1cc(-c2ccc3c(c2)CCC32NC(=O)N(CC(=O)N3Cc4ccc(F)cc4CC[C@H]3C3CC3)C2=O)cn1 (stereo partly shown) [SYY-B043]
–	< 5	< 100	–	CNC(=O)Cn1cc(-c2ccc3c(c2)CCC32NC(=O)N(CC(=O)N3Cc4ccc(F)cc4CC[C@H]3C3CC3)C2=O)cn1 (stereo partly shown) [SYY-B045]
–	2.4	10.5	65	CNC(=O)Nc1ccc2c(c1)CC[C@@]21OC(=O)N(CC(=O)N2Cc3cc(F)ccc3OC[C@H]2C(F)(F)F)C1=O [SYY-B057-2]
–	< 10	–	< 20	CNC(=O)Nc1ccc2c(c1)OCCC21NC(=O)N(CC(=O)N2Cc3ccc(F)cc3CC[C@H]2C2CC2)C1=O (stereo partly shown) [SYY-B074]
–	< 5	< 20	< 20	CNC(=O)Nc1ccc2c(c1)OCCC21OC(=O)N(CC(=O)N2Cc3ccc(F)cc3CC[C@H]2C2CC2)C1=O (stereo partly shown) [SYY-B077]
–	< 20	< 100	< 50	CNC(=O)Nc1ccc2c(c1)CCC21NC(=O)N(CC(=O)N2Cc3cc(F)ccc3OC[C@H]2C(F)(F)F)C1=O (stereo partly shown) [SYY-B083]

IC50 [1] [nM]	IC50 [2] [nM]	IC50 [3] [nM]	IC50 [4] [nM]	Compound
–	< 20	< 100	< 20	Cn1cc(-c2ccc3c(c2)CCC32OC(=O)N(CC(=O)N3Cc4cc(F)ccc4OC[C@H]3C(F)(F)F)C2=O)cn1 (stereo partly shown) [SYY-B084]
–	< 20	< 50	< 10	Cn1cc(-c2ccc3c(c2)CCC32NC(=O)N(CC(=O)N3Cc4cc(F)ccc4OC[C@H]3C(F)(F)F)C2=O)cn1 (stereo partly shown) [SYY-B085]
–	< 10	< 20	≤ 20	CNC(=O)Nc1ccc2c(c1)CCCC21OC(=O)N(CC(=O)N2Cc3cc(F)ccc3OC[C@H]2C2CC2)C1=O (stereo partly shown) [SYY-B086]
–	< 20	–	< 20	CNC(=O)Nc1ccc2c(c1)CCCC21NC(=O)N(CC(=O)N2Cc3cc(F)ccc3OC[C@H]2C2CC2)C1=O (stereo partly shown) [SYY-B092]
–	< 20	< 20	< 20	Cn1cc(-c2ccc3c(c2)CCCC32NC(=O)N(CC(=O)N3Cc4cc(F)ccc4OC[C@H]3C3CC3)C2=O)cn1 (stereo partly shown) [SYY-B093]
–	< 20	121	–	CNC(=O)Nc1ccc2c(c1)OCCC21NC(=O)N(CC(=O)N2Cc3cc(F)ccc3OC[C@H]2C2CC2)C1=O (stereo partly shown) [SYY-B099]
–	< 100	–	–	Cn1cc(-c2cc3c(cn2)C2(CC3)NC(=O)N(CC(=O)N3Cc4cc(F)ccc4OC[C@H]3C(F)(F)F)C2=O)cn1 (stereo partly shown) [SYY-B161]
–	< 20	–	–	Cn1cc(-c2cnc3c(c2)CCC32NC(=O)N(CC(=O)N3Cc4cc(F)ccc4OC[C@H]3C(F)(F)F)C2=O)cn1 (stereo partly shown) [SYY-B163]
–	< 20	–	–	Cn1cc(-c2ccc3c(n2)CCC32NC(=O)N(CC(=O)N3Cc4cc(F)ccc4OC[C@H]3C(F)(F)F)C2=O)cn1 (stereo partly shown) [SYY-B165]
–	< 20	–	–	Cn1cc(-c2ccc3c(c2)C(O)C[C@]32NC(=O)N(CC(=O)N3Cc4cc(F)ccc4OC[C@H]3C3CC3)C2=O)cn1 (stereo partly shown) [SYY-B170-2]
–	< 20	< 100	< 50	CNC(=O)Nc1ccc2c(c1)CCC21NC(=O)N(CC(=O)N2Cc3cc(F)ccc3OC[C@H]2C2CC2)C1=O (stereo partly shown) [ZB-P-21]
–	< 10	< 10	< 10	Cn1cc(-c2ccc3c(c2)CCC32NC(=O)N(CC(=O)N3Cc4cc(F)ccc4OC[C@H]3C3CC3)C2=O)cn1 (stereo partly shown) [ZB-P-28]
–	< 10	< 10	< 10	Cn1cc(-c2ccc3c(c2)CCC32OC(=O)N(CC(=O)N3Cc4cc(F)ccc4OC[C@H]3C3CC3)C2=O)cn1 (stereo partly shown) [ZB-P-29]
–	< 10	–	–	CNC(=O)Nc1cc2c(cc1F)C1(CC2)NC(=O)N(CC(=O)N2Cc3ccc(F)cc3CC[C@H]2C2CC2)C1=O (stereo partly shown) [ZB-P-30]
–	< 5	–	–	CNC(=O)Nc1cc2c(cc1F)C1(CC2)OC(=O)N(CC(=O)N2Cc3ccc(F)cc3CC[C@H]2C2CC2)C1=O (stereo partly shown) [ZB-P-31]
